According to patent US10071975B2, “Macrocyclic amidinourea derivatives, methods of preparation and uses thereof as chitinase inhibitors” (CYGNET BIOSCIENCES B.V., priority 2013, dated 2018):
Values after ≈ are worked out from the molar mass of the structure shown.

Experiments:
[1] = system: C. albicans fluconazole resistant strains; test: microbe, parasite or virus in culture; format: cell-based; details: Candida albicans, 24 h
[2] = system: C. krusei; test: Antimicrobial susceptibility testing (microdilution MIC90), C. krusei strains; format: cell-based, Candida krusei; details: Pichia kudriavzevii; C. krusei (13 strains tested); 24 h; read-out: MIC90
Experimental: (§1) Sterile plastic microtitration plates containing flat-bottomed wells were used. The plates contained serial dilution of the antifungal agents with a volume of assay medium of 100 μL/well. Two drug-free medium wells were used as sterility and growth controls. The trays were inoculated with 100 μL/well of the final inoculum, with the exception of sterility control wells. […] The microtitration plates were incubated at 37° C. for 24 h. The minimal inhibitory concentrations (MICs) were determined at 24 h both visually and spectrophotometrically measuring the turbidity at 595 nm with a Varian model 1475 spectrophotometer. Results of biological tests are shown in Table 2, biological data are reported as MIC90 that is the minimum concentration required to inhibit the growth of at least the 90% of the strains tested for each species.

[3] = system: C. albicans; test: Antimicrobial susceptibility testing (microdilution MIC90), C. albicans strains; format: cell-based; details: Candida albicans; C. albicans (22 strains tested); 24 h, visually and spectrophotometrically
Experimental: as §1

[4] = system: C. guilliermondii; test: Antimicrobial susceptibility testing (microdilution MIC90), C. guilliermondii strains; format: cell-based, Candida guilliermondii; details: Meyerozyma guilliermondii; C. guilliermondii (10 strains tested); 24 h
Experimental: as §1

[5] = system: chitinase enzyme extracted from Trichoderma viride; test: Chitinase inhibition assay (NP-GlcNAc substrate); format: biochemical
Experimental: Chitinase inhibition assays were conducted against an example of the GH18 family of chitinases, i.e the chitinase enzyme extracted from Trichoderma viride. This enzyme has an high degree of identity compared to chitinase 4 of Candida albicans, and is commercially available from Sigma-Aldrich (catalogue ID: C8241).
The substrate used was the NP-GlcNAc (Sigma-Aldrich, catalogue ID: N9376) dissolved in MES 50 mM at pH6.0; the final concentration was 250 μM. The enzyme was resuspended at 0.11 mg/ml in MES 50 mM at pH 6.0, with a final concentration for the assay of 73 nM diluting with MES 50 mM and BSA 20 μg/ml at pH 6.0. A stock solution of the inhibitors was prepared at 50 mM in DMSO 100%.
The mixture with the inhibitor at various concentrations and the enzyme was prepared directly into the reading plate and left to incubate at room temperature for 20 minutes or three hours. At the end of the incubation times, the substrate was added and the reading was conducted by recording the values up to a maximum time of 10 minutes. The substrate concentration was measured by reading UV absorption at 300 nm (εM^300: 11100), while, the product of hydrolysis were measured at 400 nm (ΔεM^400: 2120). Both IC50 and Ki can be calculated.

[6] = system: C. tropicalis; test: Antimicrobial susceptibility testing (microdilution MIC90), C. tropicalis strains; format: cell-based; details: Candida tropicalis; C. tropicalis (11 strains tested); 24 h
Experimental: as §1

[7] = system: C. kefyr; test: Antimicrobial susceptibility testing (microdilution MIC90), C. kefyr strains; format: cell-based, Candida kefyr; details: Kluyveromyces marxianus; C. kefyr (10 strains tested); 24 h
Experimental: as §1

[8] = system: C. glabrata; test: Antimicrobial susceptibility testing (microdilution MIC90), C. glabrata strains; format: cell-based, Candida glabrata; details: Nakaseomyces glabratus; C. glabrata (26 strains tested); 24 h
Experimental: as §1

[9] = system: C. glabrata fluconazole resistant strains; test: microbe, parasite or virus in culture; format: cell-based, Candida glabrata; details: Nakaseomyces glabratus, 24 h
[10] = system: C. parapsilosis; test: Antimicrobial susceptibility testing (microdilution MIC90), C. parapsilosis strains; format: cell-based, Candida parapsilosis; details: Lodderomyces parapsilosis; C. parapsilosis (24 strains tested); 24 h
Experimental: as §1

[11] = strain DSY284, ERG11 Mutation, mean of three measurements
[12] = strain DSY289, ERG11 Mutation (2)
[13] = strain DSY291, ERG11 Mutation (2)
[14] = strain DSY292, ERG11 Mutation (3)
[15] = strain DSY751, ↑MDR1, ERG11 Mutation
[16] = Enz.-inhib. incubation time 20 min
[17] = Enz.-inhib. incubation time 3 h

SMILES	MIC [1, 11] [µg/mL]	MIC [1, 12] [µg/mL]	MIC [1, 13] [µg/mL]	MIC [1, 14] [µg/mL]	MIC ([1]; strain DSY296, ERG11 Mutation) [µg/mL]	MIC ([1]; strain DSY348, ERG11 Mutation) [µg/mL]	MIC ([1]; strain DSY732, ↑CDR1-CDR2) [µg/mL]	MIC ([1]; strain DSY735, ↑CDR1-CDR2) [µg/mL]	MIC ([1]; strain DSY750, ↑MDR1) [µg/mL]	MIC [1, 15] [µg/mL]	MIC ([1]; strain DSY775, ERG11 Mutation) [µg/mL]	MIC ([1]; strain DSY2323, ↑CDR2-MDR1) [µg/mL]	MIC90 [2] [µg/mL]	MIC90 [3] [µg/mL]	MIC90 [4] [µg/mL]	MIC90 [6] [µg/mL]	MIC90 [7] [µg/mL]	MIC90 [8] [µg/mL]	MIC ([9]; strain DSY530, ↑CDR1) [µg/mL]	MIC ([9]; strain DSY754, ↑CDR1) [µg/mL]	other results
C/C=C/CNC(=N)NCCCCCCCCN1CCCCCOc2ccccc2CNC(=N)NC1=O [Example 17, 1-[(E)-but-2-enyl]-3-[8-(4-imino-6-oxo-13-oxa-3,5,7-triazabicyclo[12.4.0]octadeca-1(14),15,17-trien-7-yl)octyl]guanidine]	2 (≈ 4 µM)	2 (≈ 4 µM)	4 (≈ 8 µM)	4 (≈ 8 µM)	4 (≈ 8 µM)	2 (≈ 4 µM)	2 (≈ 4 µM)	2 (≈ 4 µM)	4 (≈ 8 µM)	4 (≈ 8 µM)	4 (≈ 8 µM)	4 (≈ 8 µM)	8 (≈ 16 µM)	4 (≈ 8 µM)	2 (≈ 4 µM)	2 (≈ 4 µM)	4 (≈ 8 µM)	8 (≈ 16 µM)	8 (≈ 16 µM)	16 (≈ 32 µM)	inhibition of the chitinase enzyme [5]: active inhibitor; IC50 [5, 16]: 151 µM; Ki [5, 16]: 48.8 µM; IC50 [5, 17]: 55 µM; Ki [5, 17]: 17.8 µM; MIC ([9]; strain DSY756, ↑CDR1-CDR2-SNQ2): 8 µg/mL (≈ 16 µM); MIC ([9]; strain DSY2254, ↑CDR1-CDR2): 16 µg/mL (≈ 32 µM); MIC ([9]; strain DSY2271, ↑CDR2): 8 µg/mL (≈ 16 µM); MIC90 [10]: 2 µg/mL (≈ 4 µM)
C/C=C/CNC(=N)NCCCCCCCCN1CCCCCOC(=O)CCNC(=N)NC1=O [Example 19, 1-[(E)-but-2-enyl]-3-[8-(6-imino-2,8-dioxo-1-oxa-5,7,9-triazacyclotetradec-9-yl)octyl]guanidine]	16 (≈ 34.4 µM)	8 (≈ 17.2 µM)	8 (≈ 17.2 µM)	16 (≈ 34.4 µM)	16 (≈ 34.4 µM)	8 (≈ 17.2 µM)	8 (≈ 17.2 µM)	8 (≈ 17.2 µM)	16 (≈ 34.4 µM)	16 (≈ 34.4 µM)	16 (≈ 34.4 µM)	16 (≈ 34.4 µM)	64 (≈ 137 µM)	32 (≈ 68.7 µM)	32 (≈ 68.7 µM)	32 (≈ 68.7 µM)	32 (≈ 68.7 µM)	64 (≈ 137 µM)	64 (≈ 137 µM)	64 (≈ 137 µM)	MIC ([9]; strain DSY756, ↑CDR1-CDR2-SNQ2): 128 µg/mL (≈ 275 µM); MIC ([9]; strain DSY2254, ↑CDR1-CDR2): 128 µg/mL (≈ 275 µM); MIC ([9]; strain DSY2271, ↑CDR2): 64 µg/mL (≈ 137 µM); MIC90 [10]: 32 µg/mL (≈ 68.7 µM)
